Experimental data taken from ChEMBL document CHEMBL1201862, “PubChem BioAssay data set” (2004).
Activity calls are given as the source filed them.

Columns and labels:
[1] = molecular target: T1, Polyadenylate-binding protein 1 (Homo sapiens, UniProt P11940); assay: MLLE binding blockers, Cy5 peptide tracer – biochemical, fluorescence polarization, Cy5-PAM2 peptide, secondary, miRNA deadenylation inhibitor project, dose response (AID 602260); format: functional; settings: read-out: IC50_Mean
[2] = molecular target: T1, Polyadenylate-binding protein 1; assay: MLLE domain peptide-binding blockers, IC50 – biochemical, fluorescence polarization, FITC-PAM2 peptide, dose response (AID 602259); format: functional; settings: read-out: IC50_Mean
[3] = molecular target: T2, Zinc finger protein mex-5 (Caenorhabditis elegans, UniProt Q9XUB2); assay: potency of MEX-5 RNA-binding blockers – biochemical, C. elegans, fluorescence polarization, dose response (AID 1960)
T2 sequence (Q9XUB2 whole entry): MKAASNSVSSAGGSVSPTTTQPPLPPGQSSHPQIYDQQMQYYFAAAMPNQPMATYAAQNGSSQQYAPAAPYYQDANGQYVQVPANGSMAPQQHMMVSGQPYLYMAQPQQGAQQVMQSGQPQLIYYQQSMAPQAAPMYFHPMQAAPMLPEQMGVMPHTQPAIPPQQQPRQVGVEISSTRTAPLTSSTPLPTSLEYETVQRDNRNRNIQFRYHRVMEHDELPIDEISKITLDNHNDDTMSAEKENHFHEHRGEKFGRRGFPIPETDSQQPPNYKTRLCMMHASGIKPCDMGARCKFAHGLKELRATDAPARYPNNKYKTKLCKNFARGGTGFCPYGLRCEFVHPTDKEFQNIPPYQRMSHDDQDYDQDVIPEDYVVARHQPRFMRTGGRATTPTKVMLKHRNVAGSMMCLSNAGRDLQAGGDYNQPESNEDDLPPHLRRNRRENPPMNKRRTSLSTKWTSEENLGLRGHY

[4] = molecular target: T3, RNA-binding protein pos-1 (Caenorhabditis elegans, UniProt G5EF15); assay: disruptors of C. elegans POS-1 RNA interaction – biochemical, fluorescence polarization, dose response (AID 1964);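 also: purified POS-1 fused to maltose binding protein made in E. coli; potency of compounds blocking POS-1 binding to fluorescent RNA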
T3 sequence (G5EF15 whole entry): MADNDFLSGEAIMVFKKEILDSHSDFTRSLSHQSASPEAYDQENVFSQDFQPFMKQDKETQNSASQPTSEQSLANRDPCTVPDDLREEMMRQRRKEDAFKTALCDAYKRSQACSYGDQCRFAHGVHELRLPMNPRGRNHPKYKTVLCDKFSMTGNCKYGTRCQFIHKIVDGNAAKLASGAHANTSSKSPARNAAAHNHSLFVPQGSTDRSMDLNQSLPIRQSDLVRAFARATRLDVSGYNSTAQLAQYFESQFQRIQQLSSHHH

[5] = Luminescence Cell-Based Dose Retest to Confirm Inhibitors of Cancer Stem Cells. [Related pubchem assays (depositor defined):AID2717, AID2721]; format: functional; settings: Homo sapiens
[6] = molecular target: Luciferin 4-monooxygenase (Photinus pyralis, UniProt P08659); assay: inhibition of purified Photinus pyralis luciferase – biochemical, luminescence, dose response (AID 1891)
Sequence of Luciferin 4-monooxygenase (P08659 whole entry): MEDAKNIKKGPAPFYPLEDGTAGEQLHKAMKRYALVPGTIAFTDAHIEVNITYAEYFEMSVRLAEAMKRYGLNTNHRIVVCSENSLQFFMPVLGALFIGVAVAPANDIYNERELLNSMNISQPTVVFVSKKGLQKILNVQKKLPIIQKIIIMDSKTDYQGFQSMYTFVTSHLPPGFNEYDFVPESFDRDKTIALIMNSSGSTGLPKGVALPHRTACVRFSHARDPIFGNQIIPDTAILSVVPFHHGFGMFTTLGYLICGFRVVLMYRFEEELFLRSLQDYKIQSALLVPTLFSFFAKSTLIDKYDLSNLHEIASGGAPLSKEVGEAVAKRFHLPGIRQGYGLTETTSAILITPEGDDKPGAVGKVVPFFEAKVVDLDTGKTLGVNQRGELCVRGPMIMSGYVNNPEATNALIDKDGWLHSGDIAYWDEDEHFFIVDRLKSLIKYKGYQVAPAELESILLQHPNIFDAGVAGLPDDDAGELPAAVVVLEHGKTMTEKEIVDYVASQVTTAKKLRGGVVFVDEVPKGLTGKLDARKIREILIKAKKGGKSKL

[7] = Luminescence Cell-Based Dose Confirmation HTS to Identify Inhibitors of Platelet Dense Granule Release. [Related pubchem assays: 1663 (Primary HTS), 1678 (Summary of Project)]; format: functional
[8] = molecular target: T4, Replicative DNA helicase DnaB (Mycobacterium tuberculosis, UniProt P9WMR3); assay: DnaB intein splicing inhibitors, dose response, biochemical, cell-free fluorescence (AID 449749); format: functional
T4 sequence (P9WMR3 whole entry): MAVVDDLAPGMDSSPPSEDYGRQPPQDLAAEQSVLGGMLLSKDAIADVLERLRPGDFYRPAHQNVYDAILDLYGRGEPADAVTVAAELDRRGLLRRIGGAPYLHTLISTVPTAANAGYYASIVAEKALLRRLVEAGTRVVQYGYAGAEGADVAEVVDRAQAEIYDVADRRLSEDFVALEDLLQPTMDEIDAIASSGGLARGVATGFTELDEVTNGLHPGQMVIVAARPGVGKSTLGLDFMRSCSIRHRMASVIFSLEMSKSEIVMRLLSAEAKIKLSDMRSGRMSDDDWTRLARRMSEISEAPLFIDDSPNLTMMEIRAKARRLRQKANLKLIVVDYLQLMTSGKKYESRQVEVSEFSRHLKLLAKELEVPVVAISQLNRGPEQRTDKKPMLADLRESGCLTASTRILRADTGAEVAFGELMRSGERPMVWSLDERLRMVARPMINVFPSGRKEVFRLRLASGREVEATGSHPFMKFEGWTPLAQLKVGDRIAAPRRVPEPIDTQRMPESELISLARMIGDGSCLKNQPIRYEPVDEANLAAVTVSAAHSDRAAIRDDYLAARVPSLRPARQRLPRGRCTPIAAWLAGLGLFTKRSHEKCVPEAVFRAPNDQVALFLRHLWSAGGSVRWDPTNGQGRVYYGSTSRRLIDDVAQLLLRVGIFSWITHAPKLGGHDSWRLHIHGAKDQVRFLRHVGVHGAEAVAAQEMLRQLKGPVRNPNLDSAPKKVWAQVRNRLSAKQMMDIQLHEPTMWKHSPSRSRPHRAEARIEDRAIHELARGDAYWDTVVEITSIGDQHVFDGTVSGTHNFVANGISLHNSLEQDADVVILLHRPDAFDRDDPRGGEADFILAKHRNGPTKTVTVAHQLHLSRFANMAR

Protein RecA = molecular target: T5, Protein RecA (Mycobacterium tuberculosis, UniProt P9WHJ3); assay: Fluorescence Cell-Free Homogeneous Dose Retest to Identify Inhibitors of RecA-Intein Splicing Activity. [Related pubchem assays (depositor defined):AID2097, AID2223, AID489010, AID492950]; format: functional
T5 sequence (P9WHJ3 whole entry): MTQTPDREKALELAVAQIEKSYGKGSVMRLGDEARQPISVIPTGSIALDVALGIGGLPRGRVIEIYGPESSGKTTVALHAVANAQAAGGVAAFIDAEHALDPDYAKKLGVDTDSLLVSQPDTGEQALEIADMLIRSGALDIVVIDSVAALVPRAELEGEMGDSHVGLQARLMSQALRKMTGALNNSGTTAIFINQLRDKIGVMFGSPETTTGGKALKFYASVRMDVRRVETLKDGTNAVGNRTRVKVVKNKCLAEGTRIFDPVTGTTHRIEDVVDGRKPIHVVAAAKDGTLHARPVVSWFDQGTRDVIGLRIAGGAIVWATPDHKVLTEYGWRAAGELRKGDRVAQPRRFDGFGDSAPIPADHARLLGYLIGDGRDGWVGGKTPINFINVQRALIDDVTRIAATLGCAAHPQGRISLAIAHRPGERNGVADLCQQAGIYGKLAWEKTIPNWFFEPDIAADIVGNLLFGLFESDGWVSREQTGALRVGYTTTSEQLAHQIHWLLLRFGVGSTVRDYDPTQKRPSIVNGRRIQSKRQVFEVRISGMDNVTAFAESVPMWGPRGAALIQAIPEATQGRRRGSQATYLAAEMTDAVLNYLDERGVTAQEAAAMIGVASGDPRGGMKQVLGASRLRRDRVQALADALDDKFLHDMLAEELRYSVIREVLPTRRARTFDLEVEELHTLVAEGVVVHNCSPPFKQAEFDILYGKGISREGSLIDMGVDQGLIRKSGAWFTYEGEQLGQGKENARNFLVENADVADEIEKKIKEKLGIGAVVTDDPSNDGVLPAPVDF

Nonstructural protein 1 = Nonstructural protein 1 (Influenza A virus, UniProt Q194T2); format: functional, Influenza A virus (A/California/07/2009(H1N1))
Sequence of Nonstructural protein 1 (Q194T2 whole entry): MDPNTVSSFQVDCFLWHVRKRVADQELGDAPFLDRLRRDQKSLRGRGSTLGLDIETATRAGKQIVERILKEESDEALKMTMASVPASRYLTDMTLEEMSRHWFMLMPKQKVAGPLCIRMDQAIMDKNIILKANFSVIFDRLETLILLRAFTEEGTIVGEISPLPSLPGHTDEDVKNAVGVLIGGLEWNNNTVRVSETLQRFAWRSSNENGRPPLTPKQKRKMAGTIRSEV

INS1 = assay: INS-1E survival protection against cytokine death – cell-based, luminescence, retest, dose response (AID 449756); format: functional; settings: Rattus norvegicus;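 also: cell death triggered by IL-1 beta plus TNF-alpha plus IFN-gamma mixture; protective hits raise ATP signal compared with cytokine alone wells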

T1 sequence (P11940 whole entry, the tested form may be a part): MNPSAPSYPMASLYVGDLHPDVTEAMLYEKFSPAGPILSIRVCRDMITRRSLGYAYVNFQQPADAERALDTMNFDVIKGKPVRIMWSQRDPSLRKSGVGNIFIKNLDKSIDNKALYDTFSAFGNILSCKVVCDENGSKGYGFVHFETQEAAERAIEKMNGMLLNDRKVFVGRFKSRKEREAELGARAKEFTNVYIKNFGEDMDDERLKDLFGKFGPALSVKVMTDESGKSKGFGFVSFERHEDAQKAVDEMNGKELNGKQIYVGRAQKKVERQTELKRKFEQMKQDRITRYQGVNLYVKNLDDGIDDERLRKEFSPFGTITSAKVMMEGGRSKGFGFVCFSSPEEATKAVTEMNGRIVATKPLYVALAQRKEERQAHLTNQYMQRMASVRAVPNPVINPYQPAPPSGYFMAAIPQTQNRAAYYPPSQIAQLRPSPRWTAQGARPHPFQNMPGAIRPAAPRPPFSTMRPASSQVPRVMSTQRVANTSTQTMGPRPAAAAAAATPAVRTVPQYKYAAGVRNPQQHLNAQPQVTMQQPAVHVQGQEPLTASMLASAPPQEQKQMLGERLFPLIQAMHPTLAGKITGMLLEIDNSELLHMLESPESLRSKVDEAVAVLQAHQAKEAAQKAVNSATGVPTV

COc1ccc(NS(=O)(=O)c2ccc(F)c(Cl)c2)cn1
IC50 [1]: 46.2 µM (inactive)
IC50 [2]: 24.2 µM (inactive)

Nc1ccc2c(c1)C/C(=C/c1ccco1)C2=O
EC50 [3]: 14.3 µM (active)
EC50 [4]: 23 µM (active)

CCN(CC)C(=O)c1sc2nc(-c3cccs3)cc(-c3cccs3)c2c1N
EC50 [3]: > 300 µM (not active)
EC50 [4]: > 300 µM (not active)

COc1ccc(-n2c(Cc3cccn3C)nnc2SCC(=O)Nc2cccc(Cl)c2)cc1
AC50 [5]: 125 µM (active)

COc1ccc(NC(=O)c2ccc(OC(F)F)cc2)cc1Cl
EC50 [6]: 3.3 µM (active)
EC50 [7]: 4.52 µM (active)

CC1=CC(C)(C)N2C(=O)C3(C(C#N)=C(N)OC4=C3C(=O)CC(C)(C)C4)c3c(C)c(C)cc1c32 (stereo not drawn)
EC50 [3]: > 300 µM (not active)
EC50 [4]: > 300 µM (not active)

COc1ccc(C2=NN(c3ccccc3)C(=O)/C2=C\c2ccc(O)c(OC)c2)cc1
AC50 [8]: 2.29 µM (active)
EC50 (Protein RecA): 1.42 µM (active)
IC50 (Nonstructural protein 1): 42.4 µM (active)

C=CCN1C(=O)/C(=C/C=C2/N(CC)c3ccc(S(=O)(=O)N(C)C)cc3N2CC)SC1=S
IC50 (Nonstructural protein 1): > 100 µM (active)

Fc1ccc(NC(S)=Nc2ccc(Br)cc2)cc1
IC50 [1]: > 66 µM (inactive)
IC50 [2]: > 66 µM (inactive)

CCOC(=O)c1[nH]nc(-c2c(O)cc(C)cc2O)c1-c1csc(C)n1
EC50 [6]: > 112 µM (not active)
EC50 [7]: > 112 µM (not active)

COC(=O)c1ccccc1-n1c(CCC(=O)O)ccc1-c1ccc(F)cc1
EC50 [3]: > 300 µM (not active)
EC50 [4]: > 300 µM (not active)

Cc1ccc2oc(-c3ccc(NC(=O)c4cccnc4)cc3)nc2c1
EC50 [6]: > 112 µM (not active)
AC50 (INS1): 7.77 µM (active)
EC50 [7]: > 112 µM (not active)

Cc1occc1C(=O)Nc1cc(C(C)(C)C)on1
EC50 [6]: 2.78 µM (active)
EC50 [7]: 3.46 µM (active)

CCn1c2ccccc2c2cc(NC(=O)c3cccc([N+](=O)[O-])c3)ccc21
AC50 [5]: 1.62 µM (active)

COc1ccc(-c2[nH]ncc2N=Nc2ccccc2)cc1
AC50 [5]: 3.81 µM (active)
